The values below come from patent US20260008768A1, “UREA DERIVATIVES FOR INHIBITING NLRP3 AND USES THEREOF” (VENTUS THERAPEUTICS U.S., INC., priority 2023, published 2026).

The target in assay [1] is T1, human NLRP3 (Homo sapiens, UniProt Q96P20). The experiment in a line: Human Whole Blood (hWB) NLRP3 Assay (LPS/ATP, IL-1β). Type of assay: cell-based. Details: host or cells: human whole blood from healthy volunteers (A3). The method, then:
Human whole blood is drawn from healthy volunteers after obtaining written informed consent. Heparin lithium coated tubes are used to collect blood from volunteers. Blood samples are distributed on 96 well plates using 90 μl per well.
Priming procedure: Priming is performed by adding 5 μl of LPS (O26:B6; Sigma L-2654) at a final concentration of 1 μg/ml for 4.5 hours in a humidified incubator with 37° C., 5% CO2. Thirty minutes prior to NLRP3 activation, 5 μl of a 20× compound solution or vehicle (2% dimethylsulfoxide (DMSO)) is added to each well and plates were incubated on a shaker (450 rpm) in a humidified incubator with 37° C., 5% CO2.
Alternative priming procedure: Thirty minutes prior to LPS priming, 5 μl of a 20× compound solution or vehicle (2% dimethylsulfoxide (DMSO)) is added to each well and plates were incubated on a shaker (450 rpm) in a humidified incubator with 37° C., 5% CO2. Priming is performed by adding 5 μl of LPS (O26:B6; Sigma L-2654) at a final concentration of 1 μg/ml for 5 hours in a humidified incubator with 37° C., 5% CO2.
Activation is then performed by adding 3.3 μl of a 31×ATP solution per well. At the end of the 30 minutes stimulation, the plates are centrifuged (800 g, 10 min, room temperature) and the plasma from each well is frozen at −80° C. IL-1β levels in the supernatant were analyzed using a mesoscale discovery assay (MSD K151TUK) according to the manufacturers' instructions.
There is no detectable difference in assay results using the priming procedure versus the alternative priming procedure.
hWB NLRP3 IC50 assay results, as a measurement of whole blood potency, are provided in Table B. “A” activity=<1 uM; “B” activity=1-2 uM; “C” activity=>2-3 uM; “D” activity=>3 uM.

Assay [2] concerns the target T1, human NLRP3. The experiment in a line: Scintillation Proximity (SPA) NLRP3 Assay, displacement of 3H-MCC950. Type of assay: binding. Particulars: displacement of 3H-MCC950 from human NLRP3. The method in brief:
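Human NLRP3 (350 nM) preincubated 15 min at RT with compound (5% DMSO final) in HEPES pH 7.5 buffer with 100 μM ADP, then 125 nM 3H-MCC950 added for 60 min. Copper PVT SPA beads added; counts read 6 h later. Specific binding = signal minus no-protein wells, duplicates averaged; IC50 reported.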
On the technique in general: SPA uses beads or plates that emit light when radiolabelled molecules are held near them.

For assay [3], the target named is T1, human NLRP3. The experiment in a line: Human PBMC NLRP3 Assay (LPS priming, ATP stimulation, cytokine measurement). Type of assay: cell-based. Also noted: host or cells: human PBMCs (A2); human whole blood from healthy volunteers (A3). Particulars: human PBMC, LPS + ATP. The method, then: Reagents: Human PBMCs (Normal): iXCells Cat #10HU-003; RPMI 1640 medium with GlutaMAX: ThermoFisher Cat #61870127 (Complete Media: 4.5 g/L D-glucose, 10% FBS, 100 mM NaPyr, 1% Pen/Strep, 10 mM HEPES and 0.05 mM of ®-mercaptoethanol; Assay Media: 4.5 g/L D-glucose, 100 mM NaPyr, 1% Pen/Strep, 10 mM HEPES and 0.05 mM of mercaptoethanol; 96-well V-bottom Plates: Costar Cat #3894; LPS (E. coli O26:B6): Sigma Cat #L2654, stock 5 mg/mL in PBS; ATP: Sigma Cat #A6419, prepared in a 250 mM stock in 1 M HEPES (adjusted to pH 7.4).
Cryopreserved PBMCs were rapidly thawed in a 37° C. water bath for 2 min. Cells were then centrifuged at 1200 RPM for 5 min and resuspended in ˜50 mL of fresh RPMI 1640 Complete Medium. A count was undertaken using a hemocytometer and adjusted to 2.5×10^5 cells/mL. V-shaped 96-well plates were seeded with 200 μL of PBMCs (5×10^4) per well and subsequently incubated overnight at 37° C. with 5% CO2. Assay Media was then prepared containing 100 ng/ml of LPS. PBMCs were then centrifuged at 1,200 RPM for 5 min, serum containing media was aspirated, and 150 μL/well of Assay Media+LPS was immediately added. Assay Media without LPS was added in the untreated control wells. Cells were then primed with LPS for 4 h at 37° C. with 5% CO2. A concentration response curve (CRC) was prepared of 1000× test compound in 100% DMSO. The CRC was then diluted 1:50 in Assay Media and then further diluted by 1:5× in Assay Media resulting in a final 4×CRC in 0.4% DMSO/Assay Media. 50 μL/well of 4× test compound CRC or vehicle (0.4% DMSO/Assay Media) was then transferred into each well and subsequently incubated for 30 min at 37° C. with 5% CO2. Cells were stimulated by adding 4 μL of 250 mM ATP, using a 250 mM stock prepared in 1 M Hepes without further dilution (for a final concentration of 5 mM), for 1 h at 37° C. with 5% CO2 Plates were then centrifuged at 1200 RPM for 5 min; and 50 μl of the media was transferred to a clean 96-well storage plate for cytokine measurements using the mesoscale platform, and stored at −80° C. until analyzed. Compounds were added 30 minutes before priming the cells with LPS when TNFα was required to be quantified in the cytokine panel to confirm selectivity.
PBMC NLRP3 IC50 assay results, as a measurement of cellular potency, are provided in Table B. “A” activity=<0.01 uM; “B” activity=0.01-0.1 uM; “C” activity=>0.1-0.5 uM; “D” activity=>0.5 uM.

T1 sequence (Q96P20 whole entry): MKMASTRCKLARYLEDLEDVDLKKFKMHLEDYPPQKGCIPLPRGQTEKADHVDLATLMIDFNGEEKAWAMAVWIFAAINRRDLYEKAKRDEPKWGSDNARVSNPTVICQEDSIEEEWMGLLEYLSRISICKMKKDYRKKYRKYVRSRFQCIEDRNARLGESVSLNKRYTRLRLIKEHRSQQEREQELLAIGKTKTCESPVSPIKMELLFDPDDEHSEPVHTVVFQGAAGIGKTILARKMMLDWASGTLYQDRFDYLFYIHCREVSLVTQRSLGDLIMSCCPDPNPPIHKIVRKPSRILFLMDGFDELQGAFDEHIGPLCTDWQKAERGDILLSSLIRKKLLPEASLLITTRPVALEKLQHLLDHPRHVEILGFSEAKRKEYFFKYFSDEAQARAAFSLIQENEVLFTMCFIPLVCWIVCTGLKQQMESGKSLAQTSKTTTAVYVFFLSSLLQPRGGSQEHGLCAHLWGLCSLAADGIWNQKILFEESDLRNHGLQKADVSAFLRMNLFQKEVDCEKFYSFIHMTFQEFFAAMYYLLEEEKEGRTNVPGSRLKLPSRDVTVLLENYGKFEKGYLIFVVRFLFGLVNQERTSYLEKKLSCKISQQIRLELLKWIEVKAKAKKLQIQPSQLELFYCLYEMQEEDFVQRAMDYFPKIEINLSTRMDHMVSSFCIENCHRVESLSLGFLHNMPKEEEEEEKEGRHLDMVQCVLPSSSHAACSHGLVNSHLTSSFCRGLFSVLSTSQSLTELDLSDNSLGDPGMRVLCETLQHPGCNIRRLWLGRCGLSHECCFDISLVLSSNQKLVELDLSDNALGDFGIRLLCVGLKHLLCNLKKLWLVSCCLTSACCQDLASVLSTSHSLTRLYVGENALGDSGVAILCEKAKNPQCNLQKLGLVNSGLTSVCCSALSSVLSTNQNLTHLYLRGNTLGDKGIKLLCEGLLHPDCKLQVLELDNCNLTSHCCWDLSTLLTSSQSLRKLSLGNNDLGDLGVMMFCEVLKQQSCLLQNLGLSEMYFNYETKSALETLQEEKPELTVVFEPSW

For orientation: IC50 means the point on the concentration scale where inhibition reaches its midpoint. As for `C[C@@H]1C[C@@H](NC(=O)N(C)c2ccc(C3CC3)c(F)c2)[C@H]2CC[C@@H]1N2c1nnn[nH]1` (single isomer, unassigned) [54A*], the half-maximal inhibitory concentration (IC50) is under 1 µM in assay [1] (Table B, activity class); under 1 µM in assay [2] (Table B, activity class); under 0.01 µM in assay [3] (Table B, activity class).

For the compound `C[C@@H]1CCN(c2nnn[nH]2)C[C@H](NC(=O)N(C)c2ccc(C(F)F)cc2F)C1` (single isomer, unassigned) [18A*], the IC50 in assay [1] (Table B, activity class) was under 1 µM; in assay [2] (Table B, activity class), under 1 µM; in assay [3] (Table B, activity class) it was under 0.01 µM.

Turning to `C[C@@H]1C[C@@H](NC(=O)N(C)c2ccc(OC(F)F)c(F)c2)[C@H]2CC[C@@H]1N2c1nnn[nH]1` (single isomer, unassigned) [52A*], the IC50 was under 1 µM in assay [1] (Table B, activity class); under 1 µM in assay [2] (Table B, activity class); 0.01 to 0.1 µM in assay [3] (Table B, activity class).

`C[C@@H]1CCN(c2nnn[nH]2)C[C@H](NC(=O)N(C)c2ccc(C(F)(F)F)c(F)c2F)C1` (single isomer, unassigned) [21A*]: the IC50 was under 1 µM in assay [1] (Table B, activity class); under 1 µM in assay [2] (Table B, activity class); 0.01 to 0.1 µM in assay [3] (Table B, activity class).

In the case of `C[C@@H]1CCN(c2nnn[nH]2)C[C@H](NC(=O)N(C)c2c(F)cc(OC(F)F)cc2F)C1` (single isomer, unassigned) [19A*], the IC50 in assay [1] (Table B, activity class) was under 1 µM; in assay [2] (Table B, activity class), under 1 µM; in assay [3] (Table B, activity class) it was under 0.01 µM.

For `C[C@@H]1C[C@@H](NC(=O)N(C)c2ccc(C(F)(F)F)c(F)c2)[C@H]2CC[C@@H]1N2c1nnn[nH]1` (single isomer, unassigned) [49A*], the IC50 in assay [1] (Table B, activity class) was 1 to 2 µM; in assay [2] (Table B, activity class), under 1 µM; in assay [3] (Table B, activity class), 0.01 to 0.1 µM.

`C[C@@H]1CCN(c2nnn[nH]2)C[C@H](NC(=O)N(C)c2ccc(OC(F)(F)F)cc2F)C1` (single isomer, unassigned) [24A*]: the IC50 was under 1 µM in assay [1] (Table B, activity class); 0.26 µM in assay [1] (Table C); under 1 µM in assay [2] (Table B, activity class); 0.11 µM in assay [2] (Table C); under 0.01 µM in assay [3] (Table B, activity class); 0.0079 µM in assay [3] (Table C).

Consider `C[C@@H]1CCN(c2nnn[nH]2)C[C@H](NC(=O)N(C)c2ccc(OC(F)F)c(F)c2)C1` (single isomer, unassigned) [15A*], for which the concentration for half-maximal inhibition (IC50) in assay [1] (Table B, activity class) was under 1 µM; in assay [2] (Table B, activity class), under 1 µM; in assay [3] (Table B, activity class), under 0.01 µM.

For the compound `C[C@@H]1C[C@@H](NC(=O)N(C)c2ccc(OC(F)F)cc2F)[C@H]2CC[C@@H]1N2c1nnn[nH]1` (single isomer, unassigned) [57A*], the IC50 in assay [1] (Table B, activity class) was under 1 µM; in assay [1] (Table C), 0.19 µM; in assay [2] (Table B, activity class) it was under 1 µM; in assay [2] (Table C), 0.199 µM; in assay [3] (Table B, activity class) it was under 0.01 µM; in assay [3] (Table C), 0.0031 µM.

Take `C[C@@H]1CCN(c2nnn[nH]2)C[C@H](NC(=O)N(C)c2ccc(OC(F)F)c(OC(F)F)c2)C1` (single isomer, unassigned) [16A*]: the IC50 is 1 to 2 µM in assay [1] (Table B, activity class); under 1 µM in assay [2] (Table B, activity class); under 0.01 µM in assay [3] (Table B, activity class).

Take `CCN(C(=O)N[C@@H]1C[C@H](C)CCN(c2nnn[nH]2)C1)c1ccc(OC(F)(F)F)cc1` (single isomer, unassigned) [43A*]: the IC50 in assay [1] (Table B, activity class) was under 1 µM; in assay [2] (Table B, activity class), under 1 µM; in assay [3] (Table B, activity class) it was under 0.01 µM.

With `C[C@@H]1CCN(c2nnn[nH]2)C[C@H](NC(=O)N(C)c2ccc(OC(F)F)c(F)c2F)C1` (single isomer, unassigned) [40A*], the IC50 in assay [1] (Table B, activity class) is 1 to 2 µM; in assay [2] (Table B, activity class) it was under 1 µM; in assay [3] (Table B, activity class) it was 0.01 to 0.1 µM.

Consider `C[C@@H]1C[C@@H](NC(=O)N(C)c2c(F)cc(C3CC3)cc2F)[C@H]2CC[C@@H]1N2c1nnn[nH]1` (single isomer, unassigned) [60A*], for which the IC50 is under 1 µM in assay [1] (Table B, activity class); under 1 µM in assay [2] (Table B, activity class); under 0.01 µM in assay [3] (Table B, activity class).

As to `C[C@@H]1CCN(c2nnn[nH]2)C[C@H](NC(=O)N(C)c2ccc(C3CC3)c(F)c2)C1` (single isomer, unassigned) [23A*], the IC50 in assay [1] (Table B, activity class) was under 1 µM; in assay [2] (Table B, activity class) it was under 1 µM; in assay [3] (Table B, activity class), under 0.01 µM.

Turning to `C[C@@H]1C[C@@H](NC(=O)N(C)c2ccc(OC(F)F)cc2)[C@H]2CC[C@@H]1N2c1nnn[nH]1` (single isomer, unassigned) [42A*], the IC50 was under 1 µM in assay [1] (Table B, activity class); 0.29 µM in assay [1] (Table C); under 1 µM in assay [2] (Table B, activity class); 0.065 µM in assay [2] (Table C); under 0.01 µM in assay [3] (Table B, activity class); 0.0041 µM in assay [3] (Table C).

In the case of `C[C@@H]1CCN(c2nnn[nH]2)C[C@H](NC(=O)N(C)c2c(F)cc(C3CC3)cc2F)C1` (single isomer, unassigned) [20A*], the IC50 is under 1 µM in assay [1] (Table B, activity class); under 1 µM in assay [2] (Table B, activity class); under 0.01 µM in assay [3] (Table B, activity class).

Turning to `C[C@@H]1C[C@@H](NC(=O)N(C)c2ccc(C3CC3)cc2)[C@H]2CC[C@@H]1N2c1nnn[nH]1` (single isomer, unassigned) [46A*], the IC50 is under 1 µM in assay [1] (Table B, activity class); under 1 µM in assay [2] (Table B, activity class); under 0.01 µM in assay [3] (Table B, activity class).

In the case of `C[C@@H]1CCN(c2nnn[nH]2)C[C@H](NC(=O)N(C)c2ccc(C(F)(F)F)cc2F)C1` (single isomer, unassigned) [13A*], the IC50 in assay [1] (Table B, activity class) was under 1 µM; in assay [1] (Table C), 0.2 µM; in assay [2] (Table B, activity class), under 1 µM; in assay [2] (Table C), 0.55 µM; in assay [3] (Table B, activity class), under 0.01 µM; in assay [3] (Table C), 0.0056 µM.

Consider `C[C@@H]1CCN(c2nnn[nH]2)C[C@H](NC(=O)N(C)c2ccc(OC(F)(F)F)c(F)c2)C1` (single isomer, unassigned) [14A*], for which the IC50 in assay [1] (Table B, activity class) is 1 to 2 µM; in assay [2] (Table B, activity class), under 1 µM; in assay [3] (Table B, activity class) it was 0.01 to 0.1 µM.

With `C[C@@H]1CCN(c2nnn[nH]2)C[C@H](NC(=O)N(C)c2ccc(OC(F)(F)F)c(F)c2F)C1` (single isomer, unassigned) [26A*], the IC50 is over 3 µM in assay [1] (Table B, activity class); under 1 µM in assay [2] (Table B, activity class); 0.01 to 0.1 µM in assay [3] (Table B, activity class).

On to `C[C@@H]1CCN(c2nnn[nH]2)C[C@H](NC(=O)N(C)c2ccc(OC(F)F)cc2F)C1` (single isomer, unassigned) [17A*], for which the half-inhibitory concentration (IC50) was 1 to 2 µM in assay [1] (Table B, activity class); under 1 µM in assay [2] (Table B, activity class); under 0.01 µM in assay [3] (Table B, activity class).
